Assay results taken from patent publication US11339124B2, “3-(benzylamino)-4-(cyclohexylamino)-n-(2-(piperazin-1-yl)ethyl)benzenesulfonamide derivatives and related ferrostatin-1 analogues as cell death inhibitors for treating e.g. stroke” (VIB VZW, priority 2018, dated 2022).

Experiments:
[1] = Microsomal (metabolic) stability, human liver microsomes; details: for CLint scaled at 10 µM / half-life at 10 µM: human, liver microsomes; for CLint scaled at 10 µM: pH 7.4; for half-life at 10 µM: pH 7.4, Microsomal stability (t1/2); for half-life at 10 µM / Microsomal stability (t1/2), Human: human liver microsomes, 0.5 mg protein/ml, 10 μM compound, 37° C.; for Microsomal stability (t1/2), Human: Hydrochloride
Text: (§1) By using the measured microsomal in vitro t1/2, a calculated value for the intrinsic clearance Clint can be determined. This value states the measure in which a drug that is not bound to plasma proteins is irreversibly removed from the body by the liver. This value is expressed in mL/min/kg which can be interpreted as the volume of blood in mL that is cleared of a drug per minute per kilogram of body weight. The CLint is less sensitive to used variables in ADME assays since the amount of microsomal protein and the volume of the incubation are all taken into account. (Sohlenius-Sternbeck et al., Xenobiotica, 2012, 42, 841-853)
(§2) Liver microsomes (20 mg protein/ml), NADPH regenerating system solutions A & B and 5 mM stock compound solution (100% DMSO) are prepared. The reaction mixture finally contains 713 μL purified water, 200 μL 0.5 M potassium phosphate pH 7.4, 50 μL NADPH regenerating system solution A (BD Biosciences Cat. No. 451220), 10 μL NADPH regenerating system solution B (BD Biosciences Cat. No. 451200) and 2 μL of the compound stock solution (10 μM final concentration). The reaction mixture is warmed to 37° C. for 5 minutes in a water bath and the reaction is initiated by addition of 25 μL of liver microsomes (0.5 mg protein/ml final concentration). At different time points (0 min-15 min-30 min-60 min-120 min-240 min-360 min-24 h), 20 μL is withdrawn and 80 μL cold acetonitrile is added on ice for 10 minutes. Then the mixtures are centrifuged at 13 000 rpm for 5 min at 4° C. The supernatant is further diluted in 90% water/MeCN (1/25) to fall within the range of the LC/MS/MS analysis. At each time point, the compound is analysed using LC/MS/MS with the same UPLC system as described above. A standard curve of six points was made to fit the measured concentrations. Verapamil was used as a positive control.
(§3) All obtained readouts were processed using Microsoft Excel. In order to determine the microsomal half-life t1/2 of the compounds, the rate constant k was determined by plotting the exponential decay graphs using GraFit. Microsomal t1/2 was determined using the following formula: […]

[2] = tested on: acute iron poisoning induced organ damage; assay: Acute iron poisoning (FeSO4) induced organ damage, plasma LDH and creatine kinase; type: in vivo; details: for Protection against organ damage: plasma lactate dehydrogenase (LDH) and creatine kinase levels, prophylactic setting: ~10 mg/kg iv 15 min before FeSO4 300 mg/kg ip, plasma 2 h after challenge (FIG. 5A); for Protection against organ damage: plasma lactate dehydrogenase (LDH) and creatine kinase levels, therapeutic setting: ~10 mg/kg iv 30 min after FeSO4 300 mg/kg ip, plasma 8 h after challenge (FIG. 5B)
Method: Equimolar amounts of ferroptosis inhibitors (˜10 mg/kg) were injected iv 15 min before ip injection of FeSO4 (300 mg/kg). Plasma was collected 2 h after FeSO4-challenge and analyzed for the presence of lactate dehydrogenase (LDH) and creatine kinase. Fer-1 is ferrostatin, 3234 is compound 37,3206 is compound 38 and 3203 is compound 39 (see Table 1 for numbering and structure). […] Equimolar amounts of ferroptosis inhibitors (˜10 mg/kg) were injected iv 30 min after ip injection of FeSO4 (300 mg/kg). Plasma was collected 8 h after FeSO4-challenge and analyzed for the presence of lactate dehydrogenase (LDH) and creatine kinase.
We identified acute iron poisoning as a novel experimental model for in rhabdomyolysis-induced kidney failure.

[3] = Plasma stability, human plasma; type: in vitro ADME; details: 37° C., remaining parent compound, read-out: Plasma stability (% recovery after 6 h), Human
Method: (§4) 5 μl of a 10 mM stock solution of the compound in DMSO was added to 995 μl of plasma to obtain a 50 μM final solution. The mixture was gently shaken for 6 h at 37° C. Aliquots of 100 μl were taken at various time points (0, 0.5 h, 1 h, 2 h, 3 h and 6 h) and diluted with 400 μl of cold methanol (stored at 4° C.). The suspension was centrifuged at 14000 rpm for 5 min. 50 μl of the supernatant was diluted with 950 μl of methanol and analysed with LC/MS/MS. The samples were analysed in triplicate. The experiment was done in duplicate. […] Enalapril maleate was used as a control in mice, rats, and in human.

[4] = Microsomal (metabolic) stability, rat liver microsomes; details: for CLint scaled at 10 µM / half-life at 10 µM: rat
Text: as §1, §2, §3

[5] = Plasma stability, rat plasma; type: in vitro ADME; details: 37° C., remaining parent compound, read-out: Plasma stability (% recovery after 6 h), Rat
Method: as §4

[6] = Pharmacokinetics and tissue distribution after single-dose iv injection in mice; type: in vivo; details: single-dose iv injection (~10 mg/kg)
[7] = In vivo pharmacokinetics, single iv administration to male Wistar rats (blood concentration); parameters: species or system rat; details: 5 mg/kg iv
Method: In order to estimate how these in vitro ADME parameters correlate to an in vivo setting, compound 39 was selected for a single intravenous (iv) administration to three male Wistar rats at a dose of 5 mg/kg. Blood samples were obtained at various time points. (0.083, 0.25, 0.5, 1, 2, 4, and 24 h) The concentration of 39 was determined using UPLC analysis coupled with tandem quadrupole mass spectrometry. […] Only in 1 sample a concentration of […] was determined 5 minutes after dosing.
Male Wistar rats (BW˜250 g; Janvier France) were housed individually and randomly allocated to groups of 3 animals each based on body weight. The animals were fasted overnight until 4 hours after dosing. Drinking water remained available ad libitum.
The test compound were kept at 4° C. until formulation. The compound was formulated in PEG200 at 10 mg/ml. The test formulation was prepared by LMPH and stored at room temperature.
Blood was collected from sublingual vein using capillary tubes under isoflurane anaesthesia. The blood was dropped (15 μL) on Whatman® FTA® DMPK B cards, dried at room temperature for at least 2 hours and further processed for analysis. A 6 mm disk was punched from the blood spot center, extracted in 75:25 ACN:H2O containing tolbutamide as internal standard (IS). […] The optimal DBS protocol (FTA DMPK-A or B card, extraction solvent) was determined in a preliminary experiment.

[8] = liver microsomes, pH 7.4, Microsomal stability (t1/2), rat liver microsomes, 0.5 mg protein/ml, 10 μM compound, 37° C.

Structure (SMILES) | CLint scaled at 10 µM [1] [mL/min/kg] | half-life at 10 µM [1] [h] | Protection against organ damage: plasma lactate dehydrogenase (LDH) and creatine kinase levels, prophylactic setting [2] | Protection against organ damage: plasma lactate dehydrogenase (LDH) and creatine kinase levels, therapeutic setting [2] | recovery at 6 h, 50 μM [3] [%] | CLint scaled at 10 µM ([4]; liver microsomes, pH 7.4) [mL/min/kg] | half-life at 10 µM [4, 8] [h] | recovery at 6 h, 50 μM [5] [%] | Levels in blood [6] | Microsomal stability (t1/2), Human [1] [h] | half-life at 10 µM ([4]; microsomes, pH 7.4) [h] | Microsomal stability (t1/2), Rat ([4]; rat liver microsomes, 0.5 mg protein/ml, 10 μM compound, 37° C., Hydrochloride) [h] | Plasma concentration (below detection limit in nearly all samples) ([7]; 0.083-24 h) [ng/mL] | Plasma concentration in 1 sample ([7]; 5 minutes after dosing) [ng/mL]
CNCCNS(=O)(=O)c1ccc(NC2CCCCC2)c(NCc2ccccc2)c1.Cl [Compound 37, 3-(benzylamino)-4-(cyclohexylamino)-N-(2-(methylamino)ethyl)benzenesulfonamide Hydrochloride] | 1.7 ± 0.5 | 13.2 ± 4.1 | more effective | more effective | 90.3 | 161 ± 4.6 | 0.35 ± 0.01 | 65.8 | almost undetectable levels in blood |  |  |  |  | 
Cl.NCCNS(=O)(=O)c1ccc(NC2CCCCC2)c(NCc2ccccc2)c1 [Compound 38, N-(2-aminoethyl)-3-(benzylamino)-4-(cyclohexylamino)benzenesulfonamide Hydrochloride] | 1.3 ± 0.1 | 17.7 | more effective | more effective | 100 | 27.4 ± 2.7 |  | 100 | almost undetectable levels in blood | 17.71 ± 2.04 | 2.05 |  |  | 
Cl.O=S(=O)(NCCN1CCNCC1)c1ccc(NC2CCCCC2)c(NCc2ccccc2)c1 [Compound 39, 3-(benzylamino)-4-(cyclohexylamino)-N-(2-(piperazin-1-yl)ethyl)benzenesulfonamide Hydrochloride] | 1.1 ± 0.3 | 20.5 | more effective | more effective | 84.2 | 3.4 ± 1 | 16.5 | 85.8 | almost undetectable levels in blood | 20.53 ± 5.49 |  | 16.48 ± 4.66 | < 53.1 | 19.6
